Measurements: US8716493B2, “Multicyclic compounds and the use thereof” (Cephalon, Inc., priority 2000, dated 2014)
pIC50: −log10 of the molar value. Like-named read-outs stand apart in the source and are kept apart here.

Target: recombinant human PARP (Homo sapiens, UniProt P09874)
Assay: Measurement of PARP enzymatic activity (transfer of radiolabeled ADP-ribose from NAD+ to protein acceptor)
Format: biochemical
Procedure, shortened: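 Radiometric assay measuring transfer of [32P]ADP-ribose from NAD+ (100 μM, 2 uCi/mL label) to histone or PARP automodification, 12 min at room temperature; acid-insoluble radioactivity counted by scintillation.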

recombinant human PARP, sequence (P09874 whole entry): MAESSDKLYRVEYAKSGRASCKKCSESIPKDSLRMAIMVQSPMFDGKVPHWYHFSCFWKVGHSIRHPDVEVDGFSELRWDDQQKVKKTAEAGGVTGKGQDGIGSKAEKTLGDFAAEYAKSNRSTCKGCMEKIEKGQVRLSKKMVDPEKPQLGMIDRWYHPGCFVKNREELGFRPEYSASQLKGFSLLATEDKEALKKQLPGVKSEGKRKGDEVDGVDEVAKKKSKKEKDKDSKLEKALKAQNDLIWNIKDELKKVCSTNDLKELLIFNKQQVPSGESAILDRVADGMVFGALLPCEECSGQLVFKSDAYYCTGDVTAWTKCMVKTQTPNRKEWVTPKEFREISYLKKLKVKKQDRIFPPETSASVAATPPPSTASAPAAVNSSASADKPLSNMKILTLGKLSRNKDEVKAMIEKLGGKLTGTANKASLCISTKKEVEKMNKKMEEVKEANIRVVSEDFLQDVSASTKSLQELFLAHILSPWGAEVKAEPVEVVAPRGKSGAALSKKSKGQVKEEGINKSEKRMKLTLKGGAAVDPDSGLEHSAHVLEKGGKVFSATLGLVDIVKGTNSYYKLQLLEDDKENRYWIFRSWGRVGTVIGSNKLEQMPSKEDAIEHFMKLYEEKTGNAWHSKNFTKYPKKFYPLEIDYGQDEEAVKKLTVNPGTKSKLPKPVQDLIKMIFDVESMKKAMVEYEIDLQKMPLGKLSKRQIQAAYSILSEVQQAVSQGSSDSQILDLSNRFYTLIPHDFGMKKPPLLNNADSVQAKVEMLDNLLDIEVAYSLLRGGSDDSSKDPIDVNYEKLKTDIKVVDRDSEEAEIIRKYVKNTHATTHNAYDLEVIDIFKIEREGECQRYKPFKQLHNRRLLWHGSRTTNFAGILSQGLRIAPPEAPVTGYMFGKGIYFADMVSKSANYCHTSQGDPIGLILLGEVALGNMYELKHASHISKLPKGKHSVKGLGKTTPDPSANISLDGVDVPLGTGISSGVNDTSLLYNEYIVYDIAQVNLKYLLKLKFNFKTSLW

Compound | pIC50 (Table 2, read-out: PARP IC50) | further results
COCCOc1ccnc2[nH]c3c4c(c5c(c3c12)C(=O)NC5=O)CCC4 [Compound 8aa] | – | pIC50 (Table 18, read-out: PARP IC50): 8.00
COc1ccc2c(c1)[nH]c1c3c(c4c(c12)C(=O)NC4=O)CCC3 [Compound 14a] | – | pIC50 (Table 7, read-out: PARP IC50): 6.65
O=C1NC(=O)c2c1c1c(c3[nH]c4ccc(C(=O)N(CCO)CCO)cc4c23)CCC1 [Compound 2dc] | 7.74 | –
COc1cc[n+]([O-])c2[nH]c3c4c(c5c(c3c12)C(=O)NC5=O)CCC4 [Compound 8m] | – | pIC50 (Table 18, read-out: PARP IC50): 7.77
CC(C)(C)OC(=O)[C@@H]1CCCN1C(=O)CCC(=O)c1ccc2[nH]c3c4c(c5c(c3c2c1)C(=O)NC5=O)CCC4 [Compound 4h] | 8.15 | –
O=C1NC(=O)c2c1c1c(c3[nH]c4ccc(Cl)cc4c23)CCC1 [Compound 2b] | 7.41 | –
O=C1CCC(c2ccc3[nH]c4c5c(c6c(c4c3c2)C(=O)NC6=O)CCC5)=NN1 [Compound 4l] | 7.77 | –
O=C(O)c1ccc2[nH]c3c4c(c5c(c3c2c1)C(=O)NC5=O)CCC4 [Compound 2bd] | 7.07 | –
O=C1NC(=O)c2c1c1c(c3[nH]c4ccc(S(=O)(=O)O)cc4c23)CCC1 [Compound 2ae] | 8.10 | –
CNCc1ccc2[nH]c3c4c(c5c(c3c2c1)C(=O)NC5=O)CCC4 [Compound 2bt] | 7.60 | –
O=C1NC(=O)c2c1c1c(c3[nH]c4ccc(C(=O)N5CCC6(CC5)OCCO6)cc4c23)CCC1 [Compound 2db] | – | pIC50: 7.96
NC(=O)[C@@H]1CCCN1C(=O)CCC(=O)c1ccc2[nH]c3c4c(c5c(c3c2c1)C(=O)NC5=O)CCC4 [Compound 4o] | 7.89 | –
CN1N=C(c2ccc3[nH]c4c5c(c6c(c4c3c2)C(=O)NC6=O)CCC5)CCC1=O [Compound 4m] | 7.92 | –
CN(C)CCNC(=O)c1ccc2[nH]c3c4c(c5c(c3c2c1)C(=O)NC5=O)CCC4 [Compound 2cg] | 7.51 | –
O=C(NCC1CCCO1)c1ccc2[nH]c3c4c(c5c(c3c2c1)C(=O)NC5=O)CCC4 (stereo not drawn) [Compound 2cr] | 7.85 | –
O=C1NC(=O)c2c1c1c(c3[nH]c4ccc(CNCc5ccccc5)cc4c23)CCC1 [Compound 2bq] | 7.59 | –
CCOCCOc1ccc2[nH]c3c4c(c5c(c3c2c1)C(=O)NC5=O)CCC4 [Compound 2aq] | 7.23 | –
CC(C)(C)C(=O)OCc1nc(-c2ccc3[nH]c4c5c(c6c(c4c3c2)C(=O)NC6=O)CCC5)cs1 [Compound 3y] | 7.22 | –
CC(Br)C(=O)c1ccc2[nH]c3c4c(c5c(c3c2c1)C(=O)NC5=O)CCC4 (stereo not drawn) [Compound 2f] | 7.68 | –
O=C1NC(=O)c2c1c1c(c3[nH]c4nc(O)ccc4c23)CCC1 [Compound 8n] | – | pIC50 (Table 18, read-out: PARP IC50): 8.22
CN(CC(=O)O)CC(=O)c1ccc2[nH]c3c4c(c5c(c3c2c1)C(=O)NC5=O)CCC4 [Compound 2l] | 8.10 | –
CC(C)(C)S(=O)(=O)Cc1nc(-c2ccc3[nH]c4c5c(c6c(c4c3c2)C(=O)NC6=O)CCC5)cs1 [Compound 3p] | 7.68 | –
O=C1NC(=O)c2c1c1c(c3[nH]c4cccc(O)c4c23)CCC1 [Compound 14c] | – | pIC50 (Table 18, read-out: PARP IC50): 6.75
O=C1NC(=O)c2c1c1c(c3[nH]c4nc(O)c(Cl)cc4c23)CCC1 [Compound 8s] | – | pIC50 (Table 18, read-out: PARP IC50): 7.85
CCNCc1ccc2[nH]c3c4c(c5c(c3c2c1)C(=O)NC5=O)CCC4 [Compound 2bk] | 7.49 | –
CN(Cc1ccncc1)C(=O)c1ccc2[nH]c3c4c(c5c(c3c2c1)C(=O)NC5=O)CCC4 [Compound 2cx] | 8.00 | –
CC(C)OCCOc1cccc2[nH]c3c4c(c5c(c3c12)C(=O)NC5=O)CCC4 [Compound 14j] | – | pIC50 (Table 18, read-out: PARP IC50): 7.15
CCc1ccc2[nH]c3c4c(c5c(c3c2c1)C(=O)NC5=O)CCC4 [Compound 2az] | 6.94 | –
O=C(O)CCCC(=O)NCc1ccc2[nH]c3c4c(c5c(c3c2c1)C(=O)NC5=O)CCC4 [Compound 2ac, 3-(N-(4-(Carboxy)butanoyl)aminomethyl)-5,7,8,9,10,11-hexahydrocyclopent[a]-pyrrolo[3,4-c]carbazole-5(6H), 7-dione] | 7.32 | –
COc1cccc2[nH]c3c4c(c5c(c3c12)C(=O)NC5=O)CCC4 [Compound 14b] | – | pIC50 (Table 7, read-out: PARP IC50): 7.72
